Data as given in patent US20200323950A1, “ANTIBACTERIAL PEPTIDES AND COMBINATIONS FOR CO-THERAPY” (priority 2017, published 2020).
Values after ≈ are worked out from the molar mass of the structure shown. *1 amine or outer side, *2 acyl side, *3 side chain or, on linkers, in order; H or OH if unused. Bridges are numbered along the chain shown (N, C = ends). Roman numbers before positions name the chains, in order. [ ]: non-standard residue; d: D form. The star is where a group is joined. Maleimide(3,4-diyl) = O=C1NC(=O)C([*:2])=C1[*:1]; Ac6c = NC1(C(=O)O)CCCCC1; Dab = NCC[C@H](N)C(=O)O; NHNH2 = NN*

Key:
E. coli ATCC 29222 = assay: Antibacterial assay (MIC); assay type: cell-based; conditions: E. coli ATCC 29222, MHB, 37° C.
Protocol: (§1) Antibacterial assay. Antibacterial assays are undertaken to determine the minimal inhibitory concentrations (MIC) as described previouslyl^6.
(§2) Antibacterial activity. Each C-terminal modified PrAMP DTM-linked tetramer is assayed against nosocomial Gram-negative bacteria, including E. coli ATCC 29222, K. pneumoniae ATCC 13883, A. baumannii ATCC 19606 and P. aeruginosa ATCC 47085.

A. baumannii ATCC 19606 = assay: Antibacterial assay (MIC); assay type: cell-based; conditions: A. baumannii ATCC 19606, MHB, 37° C.
Protocol: as §1, §2

K. pneumoniae ATCC 13883 = assay: Antibacterial assay (MIC); assay type: cell-based; conditions: K. pneumoniae ATCC 13883, MHB, 37° C.
Protocol: as §1, §2

P. aeruginosa ATCC 47085 = assay: Antibacterial assay (MIC); assay type: cell-based; conditions: P. aeruginosa ATCC 47085, MHB, 37° C.
Protocol: as §1, §2

[1] = test system: panel of Gram-negative nosocomial bacteria (E. coli, K. pneumoniae, A. baumannii, P. aeruginosa); assay: Antibacterial assay (MIC), ranges over the panel; assay type: cell-based; conditions: against E. coli, A. baumannii and P. aeruginosa
Protocol: as §1, §2

S. typhimurium = assay: Synergy results for co-administration of A3-APO (ARV-1501); assay type: cell-based; conditions: antibiotic co-administered with A3-APO (ARV-1501)
[2] = test system: multidrug-resistant Klebsiella pneumoniae K97/09; assay: microbe, parasite or virus in culture
[3] = test system: multidrug-resistant Acinetobacter baumannii BAA-1605; assay: microbe, parasite or virus in culture; conditions: BAA1605
K. pneumoniae K97/09 = assay: Bacteremia Synergy Assay 1 (mouse systemic infection); assay type: in vivo; conditions: 30 mg/kg sc 3 times (Group 2)
Protocol: In vivo Studies. Animals. Assays 1-2. NMRI (Naval Medical Research Institute) BR or CD-1 mice (Toxi-Coop Zrt, Budapest, Hungary) were housed in plastic type 2 cages, 3-5 mice per cage, on softwood granules as bedding. The room was kept between 21° C. and 25° C. with 12 h light:12 h dark cycles. The animals had free access to tap water and pelleted rodent food. Upon completion of the experiments, surviving mice were euthanized by diethyl ether inhalation. Animals were maintained and handled in accordance with the recommendations of the Guidelines for the Care and Use of Laboratory Animals, and the protocols were approved by the Animal Care Committee of Semmelweis University. The planned 15 treatment groups of mice were divided roughly equally into two assays with 8 and 7 treatment groups and untreated controls in each assay for safe and humane handling of large numbers of mice.
Infection models. NMRI mice weighing approximately 20 g (4 weeks old) were infected by intraperitoneal (ip) injection of 4×10^8 CFU/g K. pneumoniae K97/09. Mice were randomly allocated to 8 and […] groups (5 mice per group).
Bacteremia Synergy Assay 1.
Group 1: phosphate buffered saline (PBS) subcutaneously (sc) 1 h after infection. Group 2: imipenem 30 mg/kg sc at 2, 14 and 26 h after infection. […]
Survival was recorded hourly 24-36 h after infection. […]

[4] = test system: Klebsiella pneumoniae K97/09; assay: Checkerboard synergy assay (FIC index); assay type: cell-based; conditions: K. pneumoniae K97/09
Protocol: In vitro activity and synergy. Minimal inhibitory concentration (MIC) assays were performed using sterile 96-well polypropylene plates in a final volume of […]. Briefly, 50 μL of midlogarithmic phase bacterial cultures were diluted to 5×10^5 CFU/mL in Mueller-Hinton broth (MHB) and then added to 50 μL of the serially diluted antibiotic. The highest A3-APO and other test compound concentration evaluated was 256 mg/L. Cultures were incubated at 37° C. for 16-20 h without shaking. MICs were identified as the lowest antimicrobial concentrations at which turbidity was not observed. Antimicrobial synergy was determined by evaluating the fractional inhibitory concentration (FIC) index and was characterized by a conventional checkerboard assay (Fernandez-Cuenca et al., 2003). Bacteria grown to mid-logarithmic phase in MHB were pre-incubated with serially diluted concentrations of peptides such as A3-APO, and the antimicrobial controls, imipenem, colistin or meropenem.
The sum of the FICs (Σ FIC) was calculated with the equation Σ FIC=FICA+FICB=(CA/MICA)+(CB/MICB), where MICA and MICB are the MICs of antimicrobial A and B alone, respectively, and CA and CB are the concentrations of the drugs when combined, respectively. Synergy was defined as a Σ FICs≤0.5 and additive activity was defined as a Σ FICs>0.5≤1.0.

[5] = test system: Acinetobacter baumannii BAA-1605; assay type: cell-based; conditions: A. baumannii BAA-1605
Protocol: In vitro activity and synergy. Minimal inhibitory concentration (MIC) assays were performed using sterile 96-well polypropylene plates in a final volume of 100 mL. Briefly, 50 μL of midlogarithmic phase bacterial cultures were diluted to 5×10^5 CFU/mL in Mueller-Hinton broth (MHB) and then added to 50 μL of the serially diluted antibiotic. […] MICs were identified as the lowest antimicrobial concentrations at which turbidity was not observed. Antimicrobial synergy was determined by evaluating the fractional inhibitory concentration (FIC) index and was characterized by a conventional checkerboard assay (Fernandez-Cuenca et al., 2003).

bacterial DnaK = bacterial DnaK (Escherichia coli, UniProt P0A6Y8); conditions: Cassone et al., 2008; cited from earlier work
bacterial DnaK, sequence (P0A6Y8 whole entry): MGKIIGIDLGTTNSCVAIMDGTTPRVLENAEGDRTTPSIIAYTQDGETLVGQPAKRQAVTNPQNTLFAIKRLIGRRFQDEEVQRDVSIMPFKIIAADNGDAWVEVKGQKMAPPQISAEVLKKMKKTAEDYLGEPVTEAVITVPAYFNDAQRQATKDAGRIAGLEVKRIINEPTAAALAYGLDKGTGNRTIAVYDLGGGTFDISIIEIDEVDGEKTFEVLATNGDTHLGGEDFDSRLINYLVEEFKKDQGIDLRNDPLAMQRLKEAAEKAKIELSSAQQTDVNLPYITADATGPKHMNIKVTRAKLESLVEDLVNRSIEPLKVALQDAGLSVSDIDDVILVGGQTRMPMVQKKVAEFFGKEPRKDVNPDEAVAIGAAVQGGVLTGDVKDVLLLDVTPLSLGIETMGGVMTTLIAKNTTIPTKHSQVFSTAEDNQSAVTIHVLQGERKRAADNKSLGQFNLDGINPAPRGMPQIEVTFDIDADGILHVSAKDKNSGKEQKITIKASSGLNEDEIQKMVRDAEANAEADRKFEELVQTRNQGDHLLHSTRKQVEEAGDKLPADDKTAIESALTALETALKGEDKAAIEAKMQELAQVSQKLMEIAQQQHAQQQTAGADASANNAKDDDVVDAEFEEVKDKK

For “I: H-[Ac6c]RPDKPRPYLPRPRPPRPVR[Dab]C-NHNH2 / II: H-[Ac6c]RPDKPRPYLPRPRPPRPVR[Dab]C-NHNH2 / III: H-[Ac6c]RPDKPRPYLPRPRPPRPVR / IV: H-[Ac6c]RPDKPRPYLPRPRPPRPVR (amide I:21-III:C, II:21-IV:C; linker I:22-II:22 via Maleimide(3,4-diyl)) [tetramer-DTM-NHNH2]”, the “Antibacterial activity, MIC” value (E. coli ATCC 29222) was 0.93 ± 0.02 µM, the “Antibacterial activity, MIC” value (A. baumannii ATCC 19606) was 2.33 ± 0.48 µM and the “Antibacterial activity, MIC” value (K. pneumoniae ATCC 13883) was 0.49 ± 0.01 µM. For the same compound, the “Antibacterial activity, MIC” value (P. aeruginosa ATCC 47085) was 1.14 ± 0.03 µM and the “MIC (range over the bacteria)” value [1] was 0.49 to 2.33 µM.
With Cc1cc(NS(=O)(=O)c2ccc(N)cc2)no1 [sulfamethoxazole] the Outcome (S. typhimurium) was “MIC lowered with priming”.
With C[C@@H](O)[C@H]1C(=O)N2C(C(=O)O)=C(SCCN=CN)C[C@H]12 [imipenem] the MIC [2] was > 256 µg/mL, the MIC [3] was 64 µg/mL (≈ 214 µM) and the “survival improvement at 36 h over untreated controls” value (K. pneumoniae K97/09) was 40%.
For “I: H-[Ac6c]RPDKPRPYLGRPRPPRPVR[Dab]-NH2 / II: H-[Ac6c]RPDKPRPYLGRPRPPRPVR (amide I:21-II:C) [Gly11, (H-Chex-Arg-Pro-Asp-Lys-Pro-Arg-Pro-Tyr-Leu-Gly-Arg-Pro-Arg-Pro-Pro-Arg-Pro-Val-Arg)2-Dab-NH2]”, the “improvement in the MIC values when added together with imipenem or colistin” value [4] is listed as “failed to exert any improvement”, the “improvement in the MIC values when added together with imipenem or colistin” value [5] is listed as “failed to exert any improvement” and the DnaK binding (bacterial DnaK) is listed as “fails to bind bacterial DnaK”.
